According to US6737383B1, “Herbicidal oxadiazolidines” (priority 1999, dated 2004):

What was measured:
[1] = tested on: sugar beet; test: Test B pre/postemergence sugar beet; format: in vivo, Beta vulgaris
Procedure, shortened: (§1)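 Response is a visual 0-to-10 score relative to untreated plants, where 0 means no effect and 10 means complete control, taken twelve to sixteen days after application. Treatments went onto soil at planting and onto foliage of 1- to 4-leaf plants, using a surfactant-containing non-phytotoxic solvent.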

[2] = tested on: bamyardgrass; test: Test B flood test barnyardgrass; format: in vivo, Echinochloa crus-galli
Method: (§2) At the same time, these crop and weed species were also treated with postemergence applications of test chemicals formulated in the same manner. Plants ranged in height from 2 to 18 cm (1- to 4-leaf stage) for postemergence treatments. Plant species in the flood test consisted of rice (Oryza sativa), smallflower flatsedge (Cyperus difformis), duck salad (Heteranthera limosa) and bamyardgrass (Echinochloa crus-galli) grown to the 2-leaf stage for testing. Treated plants and controls were maintained in a greenhouse for twelve to sixteen days, after which all species were compared to controls and visually evaluated. Plant response ratings, summarized in Table B, are based on a scale of 0 to 10 where 0 is no effect and 10 is complete control. A dash (−) response means no test result.

[3] = tested on: surinam grass; test: Test B pre/postemergence surinam grass; format: in vivo, Brachiaria decumbens
Procedure, shortened: as §1

[4] = tested on: wild oat; test: Test B pre/postemergence wild oat; format: in vivo, Avena fatua
Procedure, shortened: as §1

[5] = tested on: purple nutsedge; test: Test B pre/postemergence purple nutsedge; format: in vivo, Cyperus rotundus
Procedure, shortened: as §1

[6] = tested on: wheat; test: Test B pre/postemergence wheat; format: in vivo, Triticum aestivum
Procedure, shortened: as §1

[7] = tested on: velvetleaf; test: Test B pre/postemergence velvetleaf; format: in vivo, Abutilon theophrasti
Procedure, shortened: as §1

[8] = tested on: cocklebur; test: Test B pre/postemergence cocklebur; format: in vivo, Xanthium strumarium
Procedure, shortened: as §1

[9] = tested on: blackgrass; test: Test B pre/postemergence blackgrass; format: in vivo, Alopecurus myosuroides
Procedure, shortened: as §1

[10] = tested on: pigweed; test: Test B pre/postemergence pigweed; format: in vivo, Amaranthus retroflexus
Procedure, shortened: as §1

[11] = tested on: crabgrass; test: Test B pre/postemergence crabgrass; format: in vivo, Digitaria sanguinalis
Procedure, shortened: as §1

[12] = tested on: giant foxtail; test: Test B pre/postemergence giant foxtail; format: in vivo, Setaria faberii
Procedure, shortened: as §1

[13] = tested on: corn; test: Test B pre/postemergence corn; format: in vivo, Zea mays
Procedure, shortened: as §1

[14] = tested on: smallflower flatsedge; test: Test B flood test smallflower flatsedge; format: in vivo, Cyperus difformis
Method: as §2

[15] = tested on: rape; test: Test B pre/postemergence rape; format: in vivo, Brassica napus
Procedure, shortened: as §1

[16] = tested on: bedstraw; test: Test B pre/postemergence bedstraw; format: in vivo, Galium aparine
Procedure, shortened: as §1

[17] = tested on: soybean; test: Test B pre/postemergence soybean; format: in vivo, Glycine max
Procedure, shortened: as §1

[18] = tested on: duck salad; test: Test B flood test duck salad; format: in vivo, Heteranthera limosa
Method: as §2

[19] = tested on: morningglory; test: Test B pre/postemergence morningglory; format: in vivo, Ipomoea hederacea
Procedure, shortened: as §1

[20] = Postemergence, Rate 62 g/ha, scale of 0 to 10, 0 is no effect, 10 is complete control
[21] = Postemergence, Rate 125 g/ha, scale 0 to 10, 0 is no effect, 10 is complete control
[22] = Postemergence, Rate 500 g/ha, scale 0 to 10, 0 is no effect, 10 is complete control
[23] = Preemergence, Rate 62 g/ha, scale of 0 to 10 where 0 is no effect and 10 is complete control
[24] = Preemergence, Rate 125 g/ha, scale 0 to 10, 0 is no effect, 10 is complete control
[25] = Rate 250 g/ha, Postemergence, scale of 0 to 10 where 0 is no effect and 10 is complete control
[26] = Rate 62 g/ha, flood test species, Pre-emergence, visual evaluation after twelve to sixteen days
[27] = Rate 125 g/ha, under heading Pre-emergence, flood test species, visual evaluation after twelve to sixteen days
[28] = Rate 250 g/ha, Pre-emergence (flood test species), scale 0 to 10, 0 is no effect, 10 is complete control
[29] = Rate 500 g/ha, Pre-emergence section of Table B, 0 to 10 scale (0 no effect, 10 complete control)
[30] = Preemergence, Rate 500 g/ha, scale of 0 to 10 where 0 is no effect and 10 is complete control

With `CCCCCn1c(=O)on(C(=O)N(c2ccc(Cl)cc2)C(C)C)c1=O` [Compound 528] the “Sugarbeets plant response rating” value [1, 20] was 0, the “Sugarbeets plant response rating” value [1, 21] was 0 and the “Plant response rating, Sugarbeets” value [1, 22] was 2. The “Plant response rating, Sugarbeets” value [1, 23] was 0, the “Sugarbeets plant response rating” value [1, 24] was 0 and the “Sugarbeets plant response rating (0 to 10 scale)” value ([1]; Preemergence, Rate 250 g/ha) was 0. The “Plant response rating, Sugarbeets” value [1, 25] was 0, the “Plant response rating, Barnyardgrass (0 to 10 scale, 0 is no effect, 10 is complete control)” value [2, 26] was 0 and the “Barnyardgrass plant response rating (0 to 10 scale, 0 is no effect, 10 is complete control)” value [2, 27] was 0. For the same molecule, the “Barnyardgrass plant response rating” value [2, 28] was 0, the “Barnyardgrass plant response rating” value [2, 29] was 0 and the “B. signalgrass plant response rating” value [3, 20] was 0. The “B. signalgrass plant response rating” value [3, 21] was 0, the “Plant response rating, B. signalgrass” value [3, 22] was 0 and the “Plant response rating, B. signalgrass” value [3, 23] was 0. The “B. signalgrass plant response rating” value [3, 24] was 0, the “B. signalgrass plant response rating (0 to 10 scale, 0 is no effect, 10 is complete control)” value ([3]; Preemergence, Rate 250 g/ha) was 0 and the “Plant response rating, B. signalgrass” value [3, 25] was 0. The “Wild oats plant response rating” value [4, 20] was 0, the “Wild oats plant response rating” value [4, 21] was 0 and the “Plant response rating, Wild oats” value [4, 22] was 0. For the same molecule, the “Plant response rating, Wild oats” value [4, 23] was 0, the “Wild oats plant response rating” value [4, 24] was 0 and the “Wild oats plant response rating (0 to 10 scale)” value ([4]; Preemergence, Rate 250 g/ha) was 0. The “Plant response rating, Wild oats” value [4, 25] was 0, the “Nutsedge plant response rating” value [5, 21] was 0 and the “Plant response rating, Nutsedge” value [5, 22] was 6. For the same molecule, the “Plant response rating, Nutsedge” value [5, 23] was 0, the “Nutsedge plant response rating” value [5, 24] was 0 and the “Nutsedge plant response rating (0 to 10 scale)” value ([5]; Preemergence, Rate 250 g/ha) was 0. For the same molecule, the “Nutsedge plant response rating” value [5, 30] was 0, the “Plant response rating, Nutsedge” value [5, 25] was 0 and the “Wheat plant response rating” value [6, 20] was 0. For the same molecule, the “Wheat plant response rating” value [6, 21] was 0, the “Plant response rating, Wheat” value [6, 22] was 0 and the “Plant response rating, Wheat” value [6, 23] was 0. For the same molecule, the “Wheat plant response rating” value [6, 24] was 0, the “Wheat plant response rating (0 to 10 scale)” value ([6]; Preemergence, Rate 250 g/ha) was 0 and the “Plant response rating, Wheat” value [6, 25] was 0. The “Velvetleaf plant response rating” value [7, 20] was 0, the “Velvetleaf plant response rating” value [7, 21] was 4 and the “Plant response rating, Velvetleaf” value [7, 22] was 5. The “Plant response rating, Velvetleaf” value [7, 23] was 0, the “Velvetleaf plant response rating” value [7, 24] was 0 and the “Velvetleaf plant response rating (0 to 10 scale)” value ([7]; Preemergence, Rate 250 g/ha) was 0. The “Velvetleaf plant response rating” value [7, 30] was 0, the “Plant response rating, Velvetleaf” value [7, 25] was 4 and the “Cocklebur plant response rating” value [8, 20] was 0. For the same molecule, the “Cocklebur plant response rating” value [8, 21] was 0, the “Plant response rating, Cocklebur” value [8, 22] was 3 and the “Plant response rating, Cocklebur” value [8, 23] was 0. The “Cocklebur plant response rating” value [8, 24] was 0, the “Cocklebur plant response rating (0 to 10 scale)” value ([8]; Preemergence, Rate 250 g/ha) was 0 and the “Cocklebur plant response rating” value [8, 30] was 0. The “Plant response rating, Cocklebur” value [8, 25] was 2, the “Blackgrass plant response rating” value [9, 20] was 0 and the “Blackgrass plant response rating” value [9, 21] was 0. The “Plant response rating, Blackgrass” value [9, 22] was 5, the “Plant response rating, Blackgrass” value [9, 23] was 0 and the “Blackgrass plant response rating” value [9, 24] was 0. For the same molecule, the “Blackgrass plant response rating (0 to 10 scale)” value ([9]; Preemergence, Rate 250 g/ha) was 0, the “Plant response rating, Blackgrass” value [9, 25] was 0 and the “Redroot pigweed plant response rating” value [10, 20] was 0. For the same molecule, the “Redroot pigweed plant response rating” value [10, 21] was 0, the “Plant response rating, Redroot pigweed” value [10, 22] was 0 and the “Plant response rating, Redroot pigweed” value [10, 23] was 0. The “Redroot pigweed plant response rating” value [10, 24] was 0, the “Redroot pigweed plant response rating (0 to 10 scale)” value ([10]; Preemergence, Rate 250 g/ha) was 0 and the “Plant response rating, Redroot pigweed” value [10, 25] was 0. For the same molecule, the “Crabgrass plant response rating” value [11, 20] was 3, the “Crabgrass plant response rating” value [11, 21] was 9 and the “Plant response rating, Crabgrass” value [11, 22] was 10. The “Plant response rating, Crabgrass” value [11, 23] was 7, the “Crabgrass plant response rating” value [11, 24] was 9 and the “Crabgrass plant response rating (0 to 10 scale)” value ([11]; Preemergence, Rate 250 g/ha) was 10. For the same molecule, the “Crabgrass plant response rating” value [11, 30] was 10, the “Plant response rating, Crabgrass” value [11, 25] was 9 and the “Giant foxtail plant response rating” value [12, 20] was 0. For the same molecule, the “Giant foxtail plant response rating” value [12, 21] was 3, the “Plant response rating, Giant foxtail” value [12, 22] was 9 and the “Plant response rating, Giant foxtail” value [12, 23] was 9. The “Giant foxtail plant response rating” value [12, 24] was 10, the “Giant foxtail plant response rating (0 to 10 scale)” value ([12]; Preemergence, Rate 250 g/ha) was 10 and the “Giant foxtail plant response rating” value [12, 30] was 10. For the same molecule, the “Plant response rating, Giant foxtail” value [12, 25] was 3, the “Corn plant response rating” value [13, 20] was 0 and the “Corn plant response rating” value [13, 21] was 0. The “Plant response rating, Corn” value [13, 22] was 0, the “Plant response rating, Corn” value [13, 23] was 0 and the “Corn plant response rating” value [13, 24] was 0. For the same molecule, the “Corn plant response rating (0 to 10 scale)” value ([13]; Preemergence, Rate 250 g/ha) was 0, the “Corn plant response rating” value [13, 30] was 0 and the “Plant response rating, Corn” value [13, 25] was 0. The “Plant response rating, S. Flatsedge (0 to 10 scale, 0 is no effect, 10 is complete control)” value [14, 26] was 0, the “S. Flatsedge plant response rating (0 to 10 scale, 0 is no effect, 10 is complete control)” value [14, 27] was 0 and the “S. Flatsedge plant response rating” value [14, 28] was 0. The “S. Flatsedge plant response rating” value [14, 29] was 0, the “Rape plant response rating” value [15, 20] was 0 and the “Rape plant response rating” value [15, 21] was 0. The “Plant response rating, Rape” value [15, 22] was 3, the “Plant response rating, Rape” value [15, 23] was 0 and the “Rape plant response rating” value [15, 24] was 0. For the same molecule, the “Rape plant response rating (0 to 10 scale)” value ([15]; Preemergence, Rate 250 g/ha) was 0, the “Plant response rating, Rape” value [15, 25] was 3 and the “Bedstraw plant response rating” value [16, 20] was 0. For the same molecule, the “Bedstraw plant response rating” value [16, 21] was 0, the “Plant response rating, Bedstraw” value [16, 22] was 8 and the “Plant response rating, Bedstraw” value [16, 23] was 0. For the same molecule, the “Bedstraw plant response rating” value [16, 24] was 0, the “Bedstraw plant response rating (0 to 10 scale)” value ([16]; Preemergence, Rate 250 g/ha) was 0 and the “Plant response rating, Bedstraw” value [16, 25] was 0. For the same molecule, the “Soybean plant response rating” value [17, 20] was 3, the “Soybean plant response rating” value [17, 21] was 3 and the “Plant response rating, Soybean” value [17, 22] was 5. For the same molecule, the “Plant response rating, Soybean” value [17, 23] was 0, the “Soybean plant response rating” value [17, 24] was 0 and the “Soybean plant response rating (0 to 10 scale)” value ([17]; Preemergence, Rate 250 g/ha) was 0. The “Soybean plant response rating” value [17, 30] was 0, the “Plant response rating, Soybean” value [17, 25] was 5 and the “Plant response rating, Ducksalad (0 to 10 scale, 0 is no effect, 10 is complete control)” value [18, 26] was 0. The “Ducksalad plant response rating (0 to 10 scale, 0 is no effect, 10 is complete control)” value [18, 27] was 0, the “Ducksalad plant response rating” value [18, 28] was 0 and the “Ducksalad plant response rating” value [18, 29] was 0. The “Morningglory plant response rating” value [19, 20] was 2, the “Morningglory plant response rating” value [19, 21] was 3 and the “Plant response rating, Morningglory” value [19, 22] was 5. For the same molecule, the “Plant response rating, Morningglory” value [19, 23] was 0, the “Morningglory plant response rating” value [19, 24] was 0 and the “Morningglory plant response rating (0 to 10 scale)” value ([19]; Preemergence, Rate 250 g/ha) was 0. For the same molecule, the “Morningglory plant response rating” value [19, 30] was 3 and the “Plant response rating, Morningglory” value [19, 25] was 5.
